Calls of active or inactive are those of the source.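 The calls were made as follows: active = compounds giving half or more protection of infected cells from virus-caused growth loss, again on retest; inactive = the rest.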
Tested on: CEM cells HIV-1 protection, formazan growth assay
Test: NCI AIDS Antiviral Assay
Conditions: for IC50: measured here: growth of uninfected CEM cells
Procedure: The ability of compounds to protect human CEM cells from HIV-1 infection is measured as a screen for new compounds capable of inhibiting the HIV virus. Five concentrations of drug were tested on uninfected and infected cells and cell growth was measured using a soluble formazan assay. […] Compounds that provided at least 50% protection were retested. Compounds that provided at least 50% protection on retest were listed as moderately active. Compounds that reproducibly provided 100% protection were listed as confirmed active. […] Note that the inability to provide protection could be due to toxicity.

| Structure (SMILES) | EC50 [µM] | IC50 [µM] | outcome |
| --- | --- | --- | --- |
| Cc1ccc(NC2=N/C(=C/c3ccccc3)C(Cl)=N2)cc1 | > 100 | > 100 |  |
| COC1(OC)C=CC2C1C1C=CC2C1(OC)OC (stereo unspecified) | > 200 | > 200 |  |
| Cc1[nH]c2ccccc2c1C1Cc2ccccc2N1C(=O)C#Cc1ccc([N+](=O)[O-])cc1 (stereo unspecified) |  |  | inactive |
| COC(=O)[C@@H]1Cc2c([nH]c3ccccc23)[C@H](c2ccccc2)N1 |  |  | inactive |
| O=C(Nc1nccs1)c1ccc(C(=O)Nc2nccs2)cc1 | > 200 | > 200 |  |
| CCCCCCCCCCOc1cc2c(=O)c(C(=O)OCC)c[nH]c2cc1OCC | > 200 | > 200 |  |
| C=CCC12CC(O)C(O)CC1(OC)OC(c1cc(OC)c(OC)c(OC)c1)C2C (stereo unspecified) | > 200 | 129 |  |
| CC(C)(C)[Si](C)(C)OCC1OC(n2ccc(=O)[nH]c2=O)C(O[Si](C)(C)C(C)(C)C)C12OC2C(=O)NN (stereo unspecified) | > 200 | 7.41 |  |
| O=C(O)c1ccc(N=Nc2ccc(/C=C/c3ccc(N=Nc4ccc(C(=O)O)cc4O)cc3S(=O)(=O)O)c(S(=O)(=O)O)c2)c(O)c1 | > 513 | 4.27 |  |
| O=c1[nH]c(=O)n(C2CC(O)C(CO)O2)cc1OCCc1ccccc1 (stereo unspecified) | > 200 | > 200 |  |
| COC(=O)/C=C\c1ccc2c(c1)CC1(C2)Cc2ccc(/C=C/C(=O)OC)cc2C1 (stereo unspecified) | > 200 | > 200 |  |
| Cc1ccc(S(=O)(=O)Nn2c(O)c(C#N)c(-c3ccc(Cl)cc3)c(C#N)c2=O)cc1 | > 200 | > 200 |  |
| c1ccc(C2=Nc3ccccc3C(c3ccccc3)=Nc3ccccc32)cc1 | > 72.4 | > 72.4 |  |
| c1ccc(CCCC2Sc3cccc4cccc(c34)S2)cc1 | > 11.7 | > 11.7 |  |
| COc1ccc(N=C2C(=Nc3ccc(OC)cc3)N(c3ccccc3[N+](=O)[O-])C(=S)N2c2ccc(OC)cc2)cc1 | > 200 | 47.9 |  |
| CN(C)CC(/C(Cc1ccccc1)=N\NC(=S)NN)c1ccccc1 (stereo unspecified) | > 35.5 | > 35.5 |  |
| CC1C(=O)OC2CCC3(C)C(=O)OC4OC5(c6ccoc6)CC1(O)C2(C)C43O5 (stereo unspecified) | > 200 | > 200 |  |
| N#C/C(C(=O)Nc1ccccc1)=C(/N)N1CCCC1 | > 200 | 174 |  |
| COc1cccc(C2c3cc4c(cc3OC(N3CCCCC3)C2C)OCO4)c1OC (stereo unspecified) | > 200 | 1.7 |  |
| COc1ccc(/C=C/C(=O)NCC(NC(=O)/C=C/c2ccc(OC)c(OC)c2)C(=O)O)cc1OC (stereo unspecified) | > 200 | > 200 |  |

| Structure (SMILES) | EC50 [µM] | IC50 [µM] | outcome |
| --- | --- | --- | --- |
| Cc1cc(S(=O)(=O)Nc2n[nH]c(-c3ccccn3)n2)c(S)cc1Cl | > 200 | 4.17 |  |
| Cc1ccc(S(=O)C[C@@]2(C(F)F)NC(=O)NC2=O)cc1 (stereo partly specified) | > 200 | 178 |  |
| Nc1n[n+](CC(=O)c2ccccc2)c2sc(-c3ccccc3)nn12 | > 200 | 45.7 |  |
| CC=C(c1cc(Br)c(OC)c(C(=O)OC)c1)c1cc(Br)c(OC)c(C(=O)OC)c1 | > 200 | 13.5 |  |
| S=c1cn[nH]c2ccccc12 | > 661 | 170 |  |
| Nc1ccccc1/C(O)=C1/CCOC1=O | > 7.08 | > 7.08 |  |
| NC1CC2NC3CCCCC3NC2CC1N (stereo unspecified) | > 200 | 27.5 |  |
| Cc1csc(NC23CC4CC(CC(C4)C2)C3)[n+]1C(P(=O)([O-])O)P(=O)(O)O (stereo unspecified) | > 200 | > 200 |  |
| CC(=Nc1ccccc1C(=O)[O-])c1c([O-])ccc2c(C)cc(=O)oc12.[Co+2].[OH3+].[OH3+].[OH3+] | > 3.24 | > 3.24 |  |
| Nc1c(Cl)ncnc1NCCO | > 200 | > 200 |  |
| COc1ccc2c(c1)OC[C@@H]1c3cc(NS(=O)(=O)c4ccccc4)cc(OCc4ccccc4)c3O[C@H]21 | 10.2 | 13.5 |  |
| CCCCCC(=O)C(C)C1=Nc2nnc(CCCCCCCc3nnc4n3C(=O)C(C(C)C(=O)CCCCC)=N4)n2C1=O (stereo unspecified) | > 2.45 | > 2.45 |  |
| O=C(O)COc1ccc(Cl)cc1Cc1cc(Cl)ccc1OCC(=O)O | > 200 | 89.1 |  |
| CCN(CC)c1ccc(NC(=S)NN(C)C)cc1 | > 200 | 52.5 |  |
| C=C1CC2(OC1=O)c1ccccc1C=Cc1ccccc12 | > 26.3 | 4.57 |  |
| Cc1cc(O)c2c(c1)C(=O)c1cccc(O)c1C2=O | > 28.2 | > 28.2 |  |
| N#C/C(=C\c1ccc(O)c(O)c1)C(=O)NCCCCCCNC(=O)/C(C#N)=C/c1ccc(O)c(O)c1 | > 200 | > 200 |  |
| c1ccc2sc(CN(Cc3nc4ccccc4s3)Cc3nc4ccccc4s3)nc2c1 | > 40.7 | > 40.7 |  |
| Cc1cc(=O)c2c(O)cc3c(c2o1)CC=C(COC1OC(COC2OC(CO)C(O)C(O)C2O)C(O)C(O)C1O)CO3 (stereo unspecified) | > 417 | > 417 |  |
| O=c1c2sc3ccccc3sc=2c(=O)c2c(Cl)c(Cl)c(Cl)c(Cl)c12 | > 126 | 58.9 |  |

| Structure (SMILES) | EC50 [µM] | IC50 [µM] | outcome |
| --- | --- | --- | --- |
| CCOC(=O)NC(=O)c1cn(CCCCCCCCCCC(=O)NCCCN2CCN(CCCNC(=O)CCCCCCCCCCn3cc(C(=O)NC(=O)OCC)c(=O)[nH]c3=O)CC2)c(=O)[nH]c1=O |  |  | inactive |
| CCOC(=O)CC1(O)C(=O)N(Cc2ccccc2)c2ccccc21 (stereo unspecified) | > 200 | > 200 |  |
| CC(=O)Oc1cc(OC(C)=O)c2c(=O)c(OC(C)=O)c(-c3ccc(OC(C)=O)c(OC(C)=O)c3)oc2c1 | > 200 | 9.33 |  |
| O=c1c2cc([N+](=O)[O-])ccc2oc2ccc([N+](=O)[O-])cc12 | > 13.2 | > 13.2 |  |
| CC1(C)OC2OC(C3COS(=O)O3)C(Cl)C2O1 (stereo unspecified) | > 871 | 490 |  |
| N#CCN1CCCCCc2ccccc21 | > 200 | > 200 |  |
| CCCCCCCCCCCCCCCCOC1N(C2CC(N=[N+]=[N-])C(CO)O2)C(=O)NC(=O)[C@]1(C)Br (stereo partly specified) | > 200 | 11 |  |
| N#Cc1c(N)[nH]c(S)c1C#N | > 123 | 72.4 |  |
| CCCCN(CCCC)CCCn1cnc2ncccc2c1=O |  |  | inactive |
| COc1ccc(/C(=N\NC(=S)NN)C(c2ccc(OC)cc2)C2C(=O)Oc3ccccc32)cc1 (stereo unspecified) | > 75.9 | > 75.9 |  |
| COc1cccc(/C=N/[N+](C)(C)C)c1O | > 200 | > 200 |  |
| COc1ccc(OC)c(C(=O)/C=C\C(=O)O)c1 | > 219 | 24.5 |  |
| CCCCCCCCCCCCCC(=O)OCC(C[As](=O)(O)O)OC(=O)CCCCCCCCCCCCC (stereo unspecified) | > 11.5 | > 11.5 |  |
| COc1ccc(Nc2nc3c(N)cc(C(F)(F)F)cc3nc2-c2ccccc2)cc1 | > 12.6 | > 12.6 |  |
| CC(=O)C(=[N+]=[N-])C(=O)NCC#N | > 200 | > 200 |  |
| O=C(c1ccc(Cl)cc1)N(C(=S)N1CCN(c2ccccn2)CC1)C1CCCCC1 | > 11.7 | 8.51 |  |
| COC(=O)CCC(C)C1CCC2[C@@H]3CC[C@@H]4CC(=O)CC[C@]4(C)C3CC[C@]12C (stereo partly specified) | > 5.13 | > 5.13 |  |
| CC(C)(C)COC(=O)C(C)(C)NC(=O)C(CC(=O)OCc1ccccc1)NC(=O)OCc1ccccc1 (stereo unspecified) | > 200 | 19.1 |  |
| CON(C)c1nc(N(C)OC)nc(N(C)OC)n1 | > 200 | > 200 |  |
| COC1/C=C/OC2(C)Oc3c(C)c(O)c4c(O)c(c(/C=N/N5C(C)CN(Cc6ccc(O)cc6)CC5C)c(O)c4c3C2=O)NC(=O)C(C)=C/C=C/C(C)C(O)C(C)C(O)C(C)C(OC(C)=O)C1C (stereo unspecified) | > 200 | 7.94 |  |

Source: PubChem BioAssay AID179 (DTP/NCI, 2004)
